# Like-named read-outs stand apart in the source and are kept apart here.
# What was measured:
# [1] = system: B. subtilis var. niger ATCC9372
# Text: Evaluation method to the measurement was as follows.
# Sterilization Effects (Log Reduction)=Log(Number of Adhering Bacteria/Number of Survived Bacteria)
# Index Bacteria: B. subtilis var. niger ATCC9372
# [2] = system: B. subtilis spore
# Text: Effects attained by the container sterilization method of the present invention will be compared with effects attained by the conventional sterilization method as in the following Table 2.
# (§1) In the column “No” in the above Table 2, A1, A2, A3, B1, B2 denotes bottle sample numbers, in which A1, A2 and A3 correspond to the conventional sterilization method, and B1 and B2 correspond to the third embodiment of the present invention mentioned above.
# The column “Log Reduction” represents LRV (Logarithmic Reduction Value) as to B. subtilis spore.
# [3] = system: bacteria adhering to the inner surfaces of the preforms; details: for Number of bacteria adhering on inner surface of preform 10^3: 10^3 bacteria; for Number of bacteria adhering on inner surface of preform 10^4: 10^4 bacteria; for Number of bacteria adhering on inner surface of preform 10^5: 10^5 bacteria
# Text: as §1
# [4] = for Remaining hydrogen peroxide: 500 mL PET bottle, 30 μL hydrogen peroxide
# [5] = 2 sec from hydrogen peroxide spray to air-rinse
# [6] = 5 sec from hydrogen peroxide spray to air-rinse
# [7] = bottle sample A1, conventional method, H2O2 mist 50 μL/bottle, H2O2 in air 0.0 mg/L, using amount 170 mL/min
# [8] = bottle sample A2, conventional method, H2O2 mist 100 μL/bottle, H2O2 in air 0.0 mg/L, using amount 340 mL/min
# [9] = bottle sample B1, third embodiment, H2O2 mist 50 μL/bottle, H2O2 in air 3.3 mg/L, using amount 230 mL/min
# [10] = bottle sample A2, conventional method, H2O2 mist 100 μL/bottle, H2O2 in air 0.0 mg/L
# [11] = bottle sample A3, conventional method, H2O2 mist 150 μL/bottle, H2O2 in air 0.0 mg/L
# [12] = bottle sample B1, third embodiment, H2O2 mist 50 μL/bottle, H2O2 in air 3.3 mg/L
# [13] = bottle sample B2, third embodiment, H2O2 mist 50 μL/bottle, H2O2 in air 5 mg/L
# [14] = 0.5 sec from hydrogen peroxide spray to air-rinse
smiles,measurement,setting,value
OO [hydrogen peroxide],Judgment (log reduction),[1]; [5],∘
same,Judgment (log reduction),[1]; [6],∘
same,Judgment Sterilization performance,[2]; [7],X (LVR being less than 6)
same,Log reduction,[2]; [7],<3.4
same,Judgment Sterilization performance,[2]; [8],◯ (shows LRV being 6)
same,Log reduction,[2]; [8],6.0
same,Log reduction,"[2]; bottle sample A3, conventional method, H2O2 mist 150 μL/bottle, H2O2 in air 0.0 mg/L, using amount 510 mL/min",>6.0
same,Judgment Sterilization performance,[2]; [9],◯ (shows LRV being 6)
same,Log reduction,[2]; [9],6
same,Log reduction,"[2]; bottle sample B2, third embodiment, H2O2 mist 50 μL/bottle, H2O2 in air 5 mg/L, using amount 280 mL/min",>6.0
same,sterilization effect LRV,"[2]; conventional method, hydrogen peroxide of 340 mL/min. to 510 mL/min.",6
same,sterilization effect LRV,"[2]; method of the present invention, hydrogen peroxide of 230 mL/min. to 260 mL/min.",6
same,Number of bacteria adhering on inner surface of preform 10^3,[3]; [10],◯◯◯
same,Number of bacteria adhering on inner surface of preform 10^4,[3]; [10],◯◯◯
same,Number of bacteria adhering on inner surface of preform 10^5,[3]; [10],◯◯[…]
same,Number of bacteria adhering on inner surface of preform 10^3,[3]; [11],◯◯◯
same,Number of bacteria adhering on inner surface of preform 10^4,[3]; [11],◯◯◯
same,Number of bacteria adhering on inner surface of preform 10^5,[3]; [11],◯◯◯
same,Number of bacteria adhering on inner surface of preform 10^3,[3]; [12],◯◯◯
same,Number of bacteria adhering on inner surface of preform 10^4,[3]; [12],◯◯◯
same,Number of bacteria adhering on inner surface of preform 10^5,[3]; [12],◯◯[…]
same,Number of bacteria adhering on inner surface of preform 10^3,[3]; [13],◯◯◯
same,Number of bacteria adhering on inner surface of preform 10^4,[3]; [13],◯◯◯
same,Number of bacteria adhering on inner surface of preform 10^5,[3]; [13],◯◯◯
same,Judgment (remaining hydrogen peroxide),[4]; [14],∘
same,Remaining hydrogen peroxide,[4]; [14],0.3 ppm
same,Judgment (remaining hydrogen peroxide),[4]; [5],∘
same,Remaining hydrogen peroxide,[4]; [6],0.9 ppm
same,density of the hydrogen peroxide adhering to the surface of the bottle,bottle temperature 65° C.,~80 weight %
same,density of the hydrogen peroxide adhering to the surface of the bottle,bottle temperature 80° C.,~90 weight %

# — patent US20140109520A1, “BEVERAGE FILLING METHOD AND APPARATUS” (DAI NIPPON PRINTING CO., LTD., priority 2008, published 2014)
